Structures can show the parent of a compound that is named as a salt.
Biological target: T1, DβH (Homo sapiens, UniProt P09172)
T1 construct: 125 μL of plasma (or saline for blank reaction or standard curve); tissue Instituto Português do Sangue Transplantação, Centro Sangue Transplantação, Porto, Portugal; host or cells: human plasma from healthy donors
T1 sequence (P09172 40-617 limits assumed): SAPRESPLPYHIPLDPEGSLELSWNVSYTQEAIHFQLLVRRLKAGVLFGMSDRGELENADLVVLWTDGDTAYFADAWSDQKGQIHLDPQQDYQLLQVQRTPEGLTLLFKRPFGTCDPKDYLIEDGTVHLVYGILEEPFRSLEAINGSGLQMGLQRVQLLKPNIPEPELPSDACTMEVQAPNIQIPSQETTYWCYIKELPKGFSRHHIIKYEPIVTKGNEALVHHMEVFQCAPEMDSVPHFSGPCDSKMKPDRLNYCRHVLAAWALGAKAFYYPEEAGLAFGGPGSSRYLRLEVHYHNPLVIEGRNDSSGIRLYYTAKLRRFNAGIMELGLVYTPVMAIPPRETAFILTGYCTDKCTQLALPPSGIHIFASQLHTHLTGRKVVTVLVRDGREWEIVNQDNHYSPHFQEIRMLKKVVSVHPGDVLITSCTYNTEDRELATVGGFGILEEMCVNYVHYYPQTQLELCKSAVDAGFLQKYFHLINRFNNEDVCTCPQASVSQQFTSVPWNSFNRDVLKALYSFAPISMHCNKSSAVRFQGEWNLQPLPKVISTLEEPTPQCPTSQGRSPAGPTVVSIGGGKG
Experiment: Dopamine-β-hydroxylase inhibition assay in human plasma
Type: biochemical
Details: for DβH (0.01 μM) / remaining activity at 0.01 µM: DβH activity in human plasma at 0.01 μM inhibitor; for DβH (0.1 μM) / remaining activity at 0.1 µM: DβH activity in human plasma at 0.1 μM inhibitor; for IC50: human plasma, curve fitting of 6 concentrations (100 nM to 0.3 nM)
Protocol: The ability of a compound to inhibit DβH activity may be assessed in human plasma using the following assay.
Dopamine beta hydroxylase activity in human plasma was measured by the method of Nagatsu and Udenfriend (Nagatsu, T. and Udenfriend, S. “Photometric assay of dopamine-p-hydroxylase activity in human blood.” Clin. Chem. 18(9) 980-983, 1972) with minor modifications. Catalase, N-ethylmaleimide, tyramine, disodium fumarate, pargyline, sodium acetate, ascorbic acid, copper sulfate and octopamine were obtained from Sigma Chemical Co., St. Louis, Mo. 63178. Human plasma samples were obtained from healthy donors (Instituto Português do Sangue Transplantação, Centro Sangue Transplantação, Porto, Portugal). From date of collection, plasma was stored at −80° C. until use. Test compounds were initially prepared in dimethyl sulfoxide at a concentration of 10 mM and diluted in dimethyl sulfoxide to the required concentrations. Test compounds were further diluted in ultrapure water to a concentration 20-fold to that of the final concentration to be tested. Final concentrations of test compounds were 10 and 100 nM. The various reagents used to make up the incubation buffer were premixed and consisted of the following components: sodium acetate buffer (1 M, pH 5.0, 18 mL), sodium fumarate (0.2 M, 4.5 mL), ascorbic acid (0.2 M, 4.5 ml, freshly prepared), pargyline (20 mM, freshly prepared, 4.5 mL), N-ethylmaleimide (0.2 M, 4.5 mL), catalase (10 000 U/mL, 9 mL), copper sulfate (20 μM, 4.5 mL) and 4.5 ultrapure water. The standard incubation mixture (total volume, 950 μL) contained: 50 μL of compound or vehicle (dimethyl sulfoxide 2%); 700 μL of incubation buffer; 125 μL of plasma (or saline for blank reaction or standard curve); 75 μL of saline. The reaction mixture was placed in water bath, shaking at 37° C. and pre-incubated for 10 minutes. Tyramine (0.5 M) was added and incubation proceeded for 45 minutes. The reaction contents were exposed to air. A sample of enzyme preparation (with 125 μL of plasma) that had been added perchloric acid 2 M at the end of the pre-incubation period was used as blank. A blank for each of the tested compounds was used. For octopamine standard curve, perchloric acid 2 M was replaced by increasing concentrations of octopamine prepared in perchloric acid 2 M (0.5, 1, 2.5, 5, 7.5, 10, 15, 20 μg/mL, final concentration). The incubation was stopped by adding 200 μL of 2 M molar perchloric acid, and the mixture was centrifuged at 9000 g for 5 min. The supernatant fluid (800 μL) was transferred to a column (SPE cartridge ISOLUTE SCX-3, 100 mg) and centrifuged at 150 g for 2 min. The column was washed two more times with 0.5 ml of ultrapure water by centrifuging at 150 g for 2 min. The adsorbed octopamine was eluted twice with 0.3 mL of 4 M ammonium hydroxide by centrifuging at 150 g for 2 min. Octopamine in the eluate was then converted to p-hydroxybenzaldehyde by adding 200 μL of sodium periodate (2%) and incubating for 6 min. Excess periodate was than reduced by adding 200 μL of sodium metabisulfite (10%). Absorbance was measured at […] in a 96-well plate by use of a SpectraMAX plus 384 (Molecular Devices) with software SOFTmax® PRO Software 5.3 spectrophotometer. Absorbance was linear with octopamine concentration from 0.5 to 20 μg/mL. Dopamine beta hydroxylase activity is determined as nmol of octopamine formed/mL of plasma/hour and effect of compounds is presented as % control. Results are reported in the table below as activity in % of control at the inhibitor concentration tested.
IC50 values of selected compounds were calculated based on curve fitting of results of 6 different compound concentrations (100 nM to 0.3 nM). IC50 data are reported in nM concentration.

SMILES	DβH (0.01 μM)	DβH (0.1 μM)	IC50 [nM]	remaining activity at 0.01 µM [%]	remaining activity at 0.1 µM [%]
Cl.Fc1ccc(F)c([C@H]2Cc3c(CCCN4CCOCC4)[nH]c(=S)n3C2)c1F [Example 1, (R)-1-(3-morpholinopropyl)-6-(2,3,6-trifluorophenyl)-2,5,6,7-tetrahydro-3H-pyrrolo[1,2-c]imidazole-3-thione hydrochloride]	64.6 % of Control	12.9 % of Control	12.7		
NCCCc1[nH]c(=S)n2c1C[C@H](c1c(F)ccc(F)c1F)C2 [Example 2, (R)-1-(3-aminopropyl)-6-(2,3,6-trifluorophenyl)-2,5,6,7-tetrahydro-3H-pyrrolo[1,2-c]imidazole-3-thione]				98.4	66.6
Fc1ccc(F)c([C@H]2Cc3c(CCCNCC4CCOCC4)[nH]c(=S)n3C2)c1F [Example 3, (R)-1-(3-(((tetrahydro-2H-pyran-4-yl)methyl)amino)propyl)-6-(2,3,6-trifluorophenyl)-2,5,6,7-tetrahydro-3H-pyrrolo[1,2-c]imidazole-3-thione]			9.5	57.3	15.5
Cl.NCCCc1[nH]c(=S)n2c1C[C@H](c1c(F)ccc(F)c1F)C2 [Example 4, (R)-1-(3-aminopropyl)-6-(2,3,6-trifluorophenyl)-2,5,6,7-tetrahydro-3H-pyrrolo[1,2-c]imidazole-3-thione hydrochloride]	82.7 % of Control	54.2 % of Control			
Fc1ccc(F)c([C@H]2Cc3c(CCCNC4CCOCC4)[nH]c(=S)n3C2)c1F [Example 5, (R)-1-(3-((tetrahydro-2H-pyran-4-yl)amino)propyl)-6-(2,3,6-trifluorophenyl)-2,5,6,7-tetrahydro-3H-pyrrolo[1,2-c]imidazole-3-thione]			12.7	42.5	5.4
Fc1ccc(F)c([C@H]2Cc3c(CCCN4CCOCC4)[nH]c(=S)n3C2)c1F [Example 6, (R)-1-(3-morpholinopropyl)-6-(2,3,6-trifluorophenyl)-2,5,6,7-tetrahydro-3H-pyrrolo[1,2-c]imidazole-3-thione]			11.6	63.6	10.4
Cl.Fc1ccc(F)c([C@H]2Cc3c(CCCN4CC[C@@H](F)C4)[nH]c(=S)n3C2)c1F [Example 7, (R)-1-(3-((R)-3-fluoropyrrolidin-1-yl)propyl)-6-(2,3,6-trifluorophenyl)-2,5,6,7-tetrahydro-3H-pyrrolo[1,2-c]imidazole-3-thione hydrochloride]		3.0 % of Control	8.3	42.5	
CN(C)CCCc1[nH]c(=S)n2c1C[C@H](c1c(F)ccc(F)c1F)C2 [Example 8, (R)-1-(3-(dimethylamino)propyl)-6-(2,3,6-trifluorophenyl)-2,5,6,7-tetrahydro-3H-pyrrolo[1,2-c]imidazole-3-thione]	113.4 % of Control				52.8
Fc1ccc(F)c([C@H]2Cc3c(CCCN[C@H]4CCCOC4)[nH]c(=S)n3C2)c1F [Example 9, (R)-1-(3-(((S)-tetrahydro-2H-pyran-3-yl)amino)propyl)-6-(2,3,6-trifluorophenyl)-2,5,6,7-tetrahydro-3H-pyrrolo[1,2-c]imidazole-3-thione]			19.1	48.1	12.2
CN(C)CCCc1[nH]c(=S)n2c1C[C@H](c1c(F)ccc(F)c1F)C2.Cl [Example 10, (R)-1-(3-(dimethylamino)propyl)-6-(2,3,6-trifluorophenyl)-2,5,6,7-tetrahydro-3H-pyrrolo[1,2-c]imidazole-3-thione hydrochloride]	86.2 % of Control	45.8 % of Control			
Fc1ccc(F)c([C@H]2Cc3c(CCCN4CC[C@@H](F)C4)[nH]c(=S)n3C2)c1F [Example 11, (R)-1-(3-((R)-3-fluoropyrrolidin-1-yl)propyl)-6-(2,3,6-trifluorophenyl)-2,5,6,7-tetrahydro-3H-pyrrolo[1,2-c]imidazole-3-thione]	40.6 % of Control	7.7 % of Control	7.2		
CN(CCCc1[nH]c(=S)n2c1C[C@H](c1c(F)ccc(F)c1F)C2)C1CCOCC1 [Example 12, (R)-1-(3-(methyl(tetrahydro-2H-pyran-4-yl)amino)propyl)-6-(2,3,6-trifluorophenyl)-2,5,6,7-tetrahydro-3H-pyrrolo[1,2-c]imidazole-3-thione]			20.9	71.2	18.9
CN(CCCc1[nH]c(=S)n2c1C[C@H](c1c(F)ccc(F)c1F)C2)C1CCOC1 (stereo partly drawn) [Example 13, (6R)-1-(3-(methyl(tetrahydrofuran-3-yl)amino)propyl)-6-(2,3,6-trifluorophenyl)-2,5,6,7-tetrahydro-3H-pyrrolo[1,2-c]imidazole-3-thione hydrochloride]			22.2	69.9	29.3
CN(CCCc1[nH]c(=S)n2c1C[C@H](c1c(F)ccc(F)c1F)C2)C1CCOCC1.Cl [Example 14, (R)-1-(3-(methyl(tetrahydro-2H-pyran-4-yl)amino)propyl)-6-(2,3,6-trifluorophenyl)-2,5,6,7-tetrahydro-3H-pyrrolo[1,2-c]imidazole-3-thione hydrochloride]	73.2 % of Control	19.0 % of Control	33.1		
Fc1ccc(Cl)c(F)c1[C@]12C[C@H]1c1c(CCCN3CCOCC3)[nH]c(=S)n1C2 [Example 15, (5aS,6aR)-5a-(3-chloro-2,6-difluorophenyl)-1-(3-morpholinopropyl)-5,5a,6,6a-tetrahydrocyclopropa[3,4]pyrrolo[1,2-c]imidazole-3(2H)-thione hydrochloride]			2.7	13.6	1
Fc1ccc(Cl)cc1[C@]12C[C@H]1c1c(CCCN3CCOCC3)[nH]c(=S)n1C2 [Example 16, (5aS,6aR)-5a-(5-chloro-2-fluorophenyl)-1-(3-morpholinopropyl)-5,5a,6,6a-tetrahydrocyclopropa[3,4]pyrrolo[1,2-c]imidazole-3(2H)-thione]			7.7	36.2	3.3

Source: patent US20220267331A1, “DOPAMINE-B-HYDROXYLASE INHIBITORS” (BIAL - PORTELA & CA, S.A., priority 2019, published 2022)
